The record followed here is patent US9040519B2, “Fused tetracyclic pyrido [4,3-B] indole and pyrido [3,4-B] indole derivatives and methods of use” (Medivation Technologies, Inc., priority 2010, dated 2015).

The structures appear in SMILES notation.

Test [1] has as its target T1, human recombinant serotonin (5-Hydroxytryptamine) 5-HT6 receptor (Homo sapiens, UniProt P50406).
T1 construct: expressed in transfected cells; host or cells: HeLa
Nature of the test: Serotonin 5-HT6 radioligand binding ([3H]LSD). As to conditions: compound at 0.1 μM; HeLa cells; read-out: Percentage inhibition of ligand binding, Serotonin 5-HT6. The procedure: To evaluate in radioligand binding assays the activity of compounds of the invention, human recombinant serotonin (5-Hydroxytryptamine) 5-HT6 receptor expressed in human HeLa cells (Monsma, F. Jr. et al, Mol. Pharmacol. 43:320, 1993) in a modified Tris-HCl buffer (50 mM Tris-HCl, pH 7.4, 150 mM NaCl, 2 mM Ascorbic Acid, 0.001% BSA) was used. Compounds of the invention were incubated with 1.5 nM [3H]Lysergic acid diethylamide (LSD) for 120 min at 37° C. Non-specific binding was estimated in the presence of 5 μM Serotonin (5-HT). Receptor proteins were filtered and washed, the filters were then counted to determine [3H]LSD specifically bound. Compounds were screened at 1 μM or lower, using 1% DMSO as vehicle. Biochemical assay results are presented as the percent inhibition of specific binding in Table 4.

Test [2] concerns the target T2, human recombinant histamine H1 receptor (Homo sapiens, UniProt P35367).
T2 construct: expressed in transfected cells; host or cells: CHO-K1
Nature of the test: Histamine H1 radioligand binding ([3H]Pyrilamine). As to conditions: compound at 0.1 μM; 1.2 nM [3H]Pyrilamine; CHO K1 cells; read-out: Histamine H1 Binding (0.1 μM), percentage inhibition. On the procedure:
To evaluate in radioligand binding assays the activity of compounds of the invention, human recombinant histamine H1 receptor expressed in Chinese hamster ovary (CHO) K1 cells (De Backer, M. et al, Biochem. Biophys. Res. Comm. 197(3):1601, 1993) in a modified Tris-HCl buffer (50 mM Tris-HCl, pH 7.4, 2 mM MgCl2, 100 mM NaCl, 250 mM Sucrose) was used. Compounds of the invention were incubated with 1.2 nM [^3H]Pyrilamine for 180 min at 25° C. Non-specific binding was estimated in the presence of 1 μM Pyrilamine. Receptor proteins were filtered and washed, the filters were then counted to determine [^3H]Pyrilamine specifically bound. Compounds were screened at 1 μM or lower, using 1% DMSO as vehicle. Biochemical assay results are presented as the percent inhibition of specific binding in Table 2.

Test [3] concerns the target T3, human recombinant dopamine D2L receptor (Homo sapiens, UniProt P14416).
T3 construct: expressed in transfected cells; host or cells: CHO
Nature of the test: Dopamine D2L radioligand binding ([3H]Spiperone). As to conditions: compound at 1 μM; CHO cells; read-out: Percentage inhibition of ligand binding, Dopamine D2L. The procedure: To evaluate in radioligand binding assays the activity of compounds of the invention, human recombinant dopamine D2L receptor expressed in Chinese hamster ovary (CHO) cells (Grandy, D. et al, Proc. Natl. Acad. Sci. USA. 86:9762, 1989; Hayes, G. et al, Mol. Endocrinol. 6:920, 1992) in a modified Tris-HCl buffer (50 mM Tris-HCl, pH 7.4, 1.4 mM Ascorbic Acid, 0.001% BSA, 150 mM NaCl) was used. Compounds of the invention were incubated with 0.16 nM [^3H]Spiperone for 120 min at 25° C. Non-specific binding was estimated in the presence of 10 μM Haloperidol. Receptor proteins were filtered and washed, the filters were then counted to determine [^3H]Spiperone specifically bound. Compounds were screened at 1 μM or lower, using 1% DMSO as vehicle. Biochemical assay results are presented as the percent inhibition of specific binding in Table 3.

The target in test [4] is T4, rat adrenergic α1A receptor (Rattus norvegicus, UniProt P43140).
T4 construct: rat adrenergic α1A receptor obtained from Wistar Rat submaxillary glands; from tissue; host or cells: Wistar rat submaxillary glands
T4 sequence (P43140 1-466): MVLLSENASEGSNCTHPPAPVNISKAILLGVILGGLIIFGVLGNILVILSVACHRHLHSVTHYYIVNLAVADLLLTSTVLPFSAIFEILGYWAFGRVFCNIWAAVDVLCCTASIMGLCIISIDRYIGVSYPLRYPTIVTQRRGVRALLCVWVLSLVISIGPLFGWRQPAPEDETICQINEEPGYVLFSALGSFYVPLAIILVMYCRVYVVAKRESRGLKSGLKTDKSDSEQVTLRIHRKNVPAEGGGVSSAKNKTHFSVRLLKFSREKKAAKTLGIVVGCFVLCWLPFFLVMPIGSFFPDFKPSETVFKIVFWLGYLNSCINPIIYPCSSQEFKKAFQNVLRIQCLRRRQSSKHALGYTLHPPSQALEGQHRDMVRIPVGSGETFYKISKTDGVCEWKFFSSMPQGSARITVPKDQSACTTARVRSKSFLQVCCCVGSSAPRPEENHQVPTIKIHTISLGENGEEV
Nature of the test: Adrenergic α1A radioligand binding ([3H]Prazosin). The conditions noted are these: compound at 0.1 μM; Wistar Rat submaxillary glands; read-out: Percentage inhibition of ligand binding, Adrenergic α1A. On the procedure:
To evaluate in radioligand binding assays the activity of compounds of the invention, rat adrenergic α1A receptor obtained from Wistar Rat submaxillary glands (Michel, A. et al, Br. J. Pharmacol. 98:883, 1989) in a modified Tris-HCl buffer (50 mM Tris-HCl buffer, pH 7.4, 0.5 mM EDTA) was used. Compounds of the invention were incubated with 0.25 nM [^3H]Prazosin for 60 min at 25° C. Non-specific binding was estimated in the presence of 10 μM phentolamine. Receptor proteins were filtered and washed, the filters were then counted to determine [^3H]Prazosin specifically bound. Compounds of the invention were screened at 1 μM or lower, using 1% DMSO as vehicle. Biochemical assay results are presented as the percent inhibition of specific binding in Table 3.

Test [5] addresses T5, human recombinant serotonin (5-Hydroxytryptamine) 5-HT7 receptor (Homo sapiens, UniProt P34969).
T5 construct: expressed in transfected cells; host or cells: CHO
Nature of the test: Serotonin 5-HT7 radioligand binding ([3H]LSD). The conditions noted are these: compound at 0.1 μM; CHO cells; read-out: Percentage inhibition of ligand binding, Serotonin 5-HT7. The procedure:
To evaluate in radioligand binding assays the activity of compounds of the invention, human recombinant serotonin (5-Hydroxytryptamine) 5-HT7 receptor expressed in Chinese hamster ovary (CHO) cells (Roth, B. et al, J. Pharmacol. Exp. Ther. 268:1403, 1994; Shen, Y. et al, J. Biol. Chem. 268:18200, 1993) in a modified Tris-HCl buffer (50 mM Tris-HCl, pH 7.4, 10 mM MgCl2, 0.5 mM EDTA) was used. Compounds of invention were incubated with 5.5 nM [^3H] Lysergic acid diethylamide (LSD) for 2 h at 25° C. Non-specific binding was estimated in the presence of 10 μM Serotonin (5-HT). Receptor proteins were filtered and washed, the filters were then counted to determine [^3H]LSD specifically bound. Compounds were screened at 1 μM or lower, using 1% DMSO as vehicle. Biochemical assay results are presented as the percent inhibition of specific binding in Table 4.

T2 sequence (P35367 whole entry): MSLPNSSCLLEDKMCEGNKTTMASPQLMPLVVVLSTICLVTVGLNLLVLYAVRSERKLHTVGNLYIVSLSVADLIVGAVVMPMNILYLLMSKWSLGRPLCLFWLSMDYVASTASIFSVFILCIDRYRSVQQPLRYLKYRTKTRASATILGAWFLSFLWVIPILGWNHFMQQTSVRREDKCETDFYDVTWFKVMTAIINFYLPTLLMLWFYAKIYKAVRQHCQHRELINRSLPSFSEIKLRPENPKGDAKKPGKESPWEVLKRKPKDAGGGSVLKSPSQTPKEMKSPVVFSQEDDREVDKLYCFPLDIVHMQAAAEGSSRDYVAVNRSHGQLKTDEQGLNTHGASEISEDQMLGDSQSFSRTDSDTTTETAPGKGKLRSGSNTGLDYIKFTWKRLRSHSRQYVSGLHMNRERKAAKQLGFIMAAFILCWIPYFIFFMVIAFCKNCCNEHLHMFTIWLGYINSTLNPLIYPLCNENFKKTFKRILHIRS
T1 sequence (P50406 whole entry): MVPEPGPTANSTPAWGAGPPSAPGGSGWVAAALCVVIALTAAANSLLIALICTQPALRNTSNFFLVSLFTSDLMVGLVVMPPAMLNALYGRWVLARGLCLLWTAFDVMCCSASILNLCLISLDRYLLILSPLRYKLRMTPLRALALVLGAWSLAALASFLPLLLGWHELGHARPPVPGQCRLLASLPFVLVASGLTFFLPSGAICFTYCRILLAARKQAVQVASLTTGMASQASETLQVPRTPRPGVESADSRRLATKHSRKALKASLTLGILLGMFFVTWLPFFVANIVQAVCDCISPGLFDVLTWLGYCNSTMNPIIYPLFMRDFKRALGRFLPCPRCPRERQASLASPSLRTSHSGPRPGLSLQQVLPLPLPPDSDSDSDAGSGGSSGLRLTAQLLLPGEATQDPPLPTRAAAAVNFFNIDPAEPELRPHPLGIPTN
T5 sequence (P34969 whole entry): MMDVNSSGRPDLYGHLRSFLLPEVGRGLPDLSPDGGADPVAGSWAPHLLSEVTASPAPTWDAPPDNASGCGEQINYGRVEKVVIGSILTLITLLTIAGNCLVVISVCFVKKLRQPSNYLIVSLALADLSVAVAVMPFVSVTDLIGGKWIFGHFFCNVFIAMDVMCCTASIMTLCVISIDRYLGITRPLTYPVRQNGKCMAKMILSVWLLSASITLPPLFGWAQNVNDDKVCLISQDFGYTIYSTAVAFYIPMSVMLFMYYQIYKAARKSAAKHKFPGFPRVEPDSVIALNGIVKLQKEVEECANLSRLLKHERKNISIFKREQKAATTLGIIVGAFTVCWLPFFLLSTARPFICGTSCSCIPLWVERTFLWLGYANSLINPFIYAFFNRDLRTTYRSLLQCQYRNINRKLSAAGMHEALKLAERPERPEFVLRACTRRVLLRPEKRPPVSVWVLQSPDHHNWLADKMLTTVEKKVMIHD
T3 sequence (P14416 whole entry): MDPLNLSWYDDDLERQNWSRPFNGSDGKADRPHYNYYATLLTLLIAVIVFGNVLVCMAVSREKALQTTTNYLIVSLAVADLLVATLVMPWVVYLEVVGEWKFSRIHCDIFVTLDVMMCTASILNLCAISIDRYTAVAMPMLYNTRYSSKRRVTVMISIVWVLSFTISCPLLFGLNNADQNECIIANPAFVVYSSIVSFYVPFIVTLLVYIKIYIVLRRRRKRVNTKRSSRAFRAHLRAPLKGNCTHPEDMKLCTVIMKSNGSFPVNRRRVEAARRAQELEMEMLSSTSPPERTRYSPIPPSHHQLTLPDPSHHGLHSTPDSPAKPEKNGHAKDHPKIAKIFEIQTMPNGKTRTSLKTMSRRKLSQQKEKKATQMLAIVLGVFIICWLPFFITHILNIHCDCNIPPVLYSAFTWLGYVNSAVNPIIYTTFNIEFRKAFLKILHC

For orientation: inhibition means the drop in the measured response relative to a control, in per cent. Turning to `Cc1ccc2c(c1)c1c3n2C(c2ccccc2)=CCC3(C)CN(C)C1` (stereo not drawn) [Compound 10, 2,3a,10-trimethyl-6-phenyl-2,3,3a,4-tetrahydro-1H-indolo[3,2,1-ij][1,6]naphthyridine], the inhibition at 0.1 µM in test [1] is 7%; in test [2], 3%; in test [4] it was -4%; in test [5], 12%. In test [3], the inhibition at 1 µM was determined as 9%.
The matching figures for `Cc1ccc2c(c1)c1c3n2CC(c2ccncc2)=CCC3(C)CN(C)C1` (stereo not drawn) [Compound 11, 2,3a,10-trimethyl-6-pyridin-4-yl-1,2,3,3a,4,7-hexahydro-2,7a-diaza-cyclohepta[jk]fluorene]: 5%, 2%, 25%, -8% and 3%.
The corresponding values for `Cc1ccc2c(c1)c1c3n2C(c2ccccc2)CCC3(C)CN(C)C1` (stereo not drawn) [Compound 12, 2,3a,10-trimethyl-6-phenyl-2,3,3a,4,5,6-hexahydro-1H-indolo[3,2,1-ij][1,6]naphthyridine] are 21%, 20%, 12%, -17% and 5%.
